T/C data for 21 compounds are collected here from PubChem BioAssay AID256 (DTP/NCI, 2004).

“And” between values parts separate entries of the source, which are not always exact repeats. Identical values can stand only once. Inconclusive results and toxic doses are left out.

This assay relates to CD2F1 mice, L1210 leukemia ip, survival T/C. Nature of the assay: NCI In Vivo Anticancer Drug Screen. Data for tumor model L1210 Leukemia (intraperitoneal) in CD2F1 (CDF1) mice. The settings on record: higher = longer survival. The essentials:
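Antitumor effect is scored in animals hosting a serially transplanted tumor. Values compare compound-dosed animals against vehicle-only controls as a simple quotient.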

The mark [1] stands for this setting: endpoint: mean survival time, dose: 100.0 mg/kg/injection, schedule: Q04DX003 (ip), vehicle: other.
Where [2] appears, read: endpoint: mean survival time, dose: 200.0 mg/kg/injection, schedule: Q04DX003 (ip), vehicle: other.
The mark [3] stands for this setting: endpoint: mean survival time, dose: 400.0 mg/kg/injection, schedule: Q04DX003 (ip), vehicle: other.
Setting [4] is: endpoint: mean survival time, dose: 50.0 mg/kg/injection, schedule: Q01DX009 (ip), vehicle: saline with Tween-80.
The mark [5] stands for this setting: endpoint: mean survival time, dose: 100.0 mg/kg/injection, schedule: Q01DX009 (ip), vehicle: saline with Tween-80.
Where [6] appears, read: endpoint: mean survival time, dose: 100.0 mg/kg/injection, schedule: Q04DX003 (ip), vehicle: saline with Tween-80.
Where [7] appears, read: endpoint: mean survival time, dose: 200.0 mg/kg/injection, schedule: Q01DX009 (ip), vehicle: saline with Tween-80.
The mark [8] stands for this setting: endpoint: mean survival time, dose: 200.0 mg/kg/injection, schedule: Q04DX003 (ip), vehicle: saline with Tween-80.
The mark [9] stands for this setting: endpoint: mean survival time, dose: 400.0 mg/kg/injection, schedule: Q01DX009 (ip), vehicle: saline with Tween-80.
[10] abbreviates: endpoint: mean survival time, dose: 100.0 mg/kg/injection, schedule: Q01DX001 (ip), vehicle: saline.
The mark [11] stands for this setting: endpoint: mean survival time, dose: 400.0 mg/kg/injection, schedule: Q04DX003 (ip), vehicle: saline with Tween-80.
Setting [12] is: endpoint: mean survival time, dose: 400.0 mg/kg/injection, schedule: Q04DX003 (ip), vehicle: saline.

With `CC(O)(P(=O)(O)O)P(=O)(O)O.[NH-]CC[NH-].[NH-]CC[NH-].[Pt+2].[Pt+2]`, the T/C runs as follows: (endpoint: mean survival time, dose: 3.13 mg/kg/injection, schedule: Q04DX003 (ip), vehicle: distilled water + Tween-80) 104 % of control; (endpoint: mean survival time, dose: 6.25 mg/kg/injection, schedule: Q04DX003 (ip), vehicle: distilled water + Tween-80) 104 % of control; (endpoint: mean survival time, dose: 12.5 mg/kg/injection, schedule: Q04DX003 (ip), vehicle: distilled water + Tween-80) 88 % of control; (endpoint: mean survival time, dose: 25.0 mg/kg/injection, schedule: Q04DX003 (ip), vehicle: distilled water + Tween-80) 103 % of control; (endpoint: mean survival time, dose: 50.0 mg/kg/injection, schedule: Q04DX003 (ip), vehicle: distilled water + Tween-80) 119 % of control; (endpoint: mean survival time, dose: 100.0 mg/kg/injection, schedule: Q04DX003 (ip), vehicle: distilled water + Tween-80) 124 % of control. Besides, under “endpoint: mean survival time, dose: 200.0 mg/kg/injection, schedule: Q04DX003 (ip), vehicle: distilled water + Tween-80”, the T/C was 111 % of control.
In the case of `O=C(O)[C@H](Cc1ccccc1)N1C(=O)c2ccccc2C1=O`, the T/C reads like this: (endpoint: median survival time, dose: 75.0 mg/kg/injection, schedule: Q01DX005 (ip), vehicle: DMSO) 96 % of control; (endpoint: median survival time, dose: 150.0 mg/kg/injection, schedule: Q01DX005 (ip), vehicle: DMSO) 93 % of control; (endpoint: median survival time, dose: 300.0 mg/kg/injection, schedule: Q01DX005 (ip), vehicle: DMSO) 96 % of control; (endpoint: median survival time, dose: 600.0 mg/kg/injection, schedule: Q01DX005 (ip), vehicle: DMSO) 98 % of control.
For `COC(=O)CCCc1c[nH]c2ccccc12`, the T/C under setting [1] was 101 % of control, the T/C under setting [2] was 115 % of control and the T/C under setting [3] was 94 % of control.
The corresponding values for `CCOC(=O)Nc1ccccc1[N+](=O)[O-]` are 98 % of control, 102 % of control and 98 % of control.
With `CC(C)OC(=O)Nc1ncn[nH]1`, the T/C (endpoint: mean survival time, dose: 100.0 mg/kg/injection, schedule: Q04DX002 (ip), vehicle: saline with Tween-80) was 104 % of control; the T/C (endpoint: mean survival time, dose: 200.0 mg/kg/injection, schedule: Q04DX002 (ip), vehicle: saline with Tween-80) is 108 % of control; the T/C (endpoint: mean survival time, dose: 400.0 mg/kg/injection, schedule: Q04DX002 (ip), vehicle: saline with Tween-80) is 93 % of control.
`CCN(CC)CC(C)(C)CO`: the T/C under setting [4] was 104 % of control; the T/C under setting [5] was 95 % of control; the T/C under setting [6] was 92 % of control; the T/C under setting [7] was 98 % of control; the T/C under setting [8] was 97 % of control.
As to `O=c1[nH]cc(NCCCCc2ccccc2)c(=O)[nH]1`, the T/C was 94 % of control (endpoint: mean survival time, dose: 100.0 mg/kg/injection, schedule: Q01DX001 (ip), vehicle: saline with Tween-80); 95 % of control (endpoint: mean survival time, dose: 200.0 mg/kg/injection, schedule: Q01DX001 (ip), vehicle: saline with Tween-80); 92 % of control (endpoint: mean survival time, dose: 400.0 mg/kg/injection, schedule: Q01DX001 (ip), vehicle: saline with Tween-80).
As for `CC[C@H](CC[C@@H](C)C1CC[C@H]2[C@@H]3CC=C4C[C@@H](OP(=O)(N5CC5)N5CC5)CC[C@]4(C)[C@H]3CC[C@]12C)C(C)C` (some centres undefined), the T/C is 97 % of control (endpoint: mean survival time, dose: 12.5 mg/kg/injection, schedule: Q01DX009 (ip), vehicle: saline with Tween-80); 92 % of control (endpoint: mean survival time, dose: 25.0 mg/kg/injection, schedule: Q01DX009 (ip), vehicle: saline with Tween-80); 93 % of control under setting [4]; 92 % of control under setting [5]; 108 % of control under setting [7]; 97 % of control under setting [9].
Consider `COc1cccc(C2NC(=O)c3c(n[nH]c3N)S2)c1O` (centres undefined), for which the T/C (endpoint: median survival time, dose: 12.5 mg/kg/injection, schedule: Q01DX009 (ip), vehicle: saline with Tween-80) is 101 % of control; the T/C (endpoint: median survival time, dose: 25.0 mg/kg/injection, schedule: Q01DX009 (ip), vehicle: saline with Tween-80) is 101 % of control; the T/C (endpoint: median survival time, dose: 50.0 mg/kg/injection, schedule: Q01DX009 (ip), vehicle: saline with Tween-80) was 102 % of control; the T/C (endpoint: median survival time, dose: 100.0 mg/kg/injection, schedule: Q01DX009 (ip), vehicle: saline with Tween-80) is 98 % of control; the T/C (endpoint: median survival time, dose: 200.0 mg/kg/injection, schedule: Q01DX009 (ip), vehicle: saline with Tween-80) was 97 % of control; the T/C (endpoint: median survival time, dose: 400.0 mg/kg/injection, schedule: Q01DX009 (ip), vehicle: saline with Tween-80) is 93 % of control.
For the compound `CN(C)CCc1ccc(O)cc1`, the T/C reads like this: (endpoint: mean survival time, dose: 25.0 mg/kg/injection, schedule: Q01DX001 (ip), vehicle: saline) 103 % of control; (endpoint: mean survival time, dose: 50.0 mg/kg/injection, schedule: Q01DX001 (ip), vehicle: saline) 105 % of control; under setting [10], 98 % of control and 100 % of control; under setting [5], 97 % of control; under setting [6], 102 % of control; under setting [7], 102 % of control. Further, the T/C is, setting by setting: under setting [8], 96 % of control; under setting [9], 101 % of control; under setting [11], 104 % of control.
`[O-][n+]1c2cccc(O)c2[n+]([O-])c2cccc(O)c21`: the T/C under setting [6] is 91 % of control, the T/C under setting [8] was 100 % of control and the T/C under setting [11] is 103 % of control.
The corresponding values for `Cc1nc2ccc(Cl)c(Cl)c2s1` are 106 % of control, 106 % of control and 104 % of control.
Regarding `O=[N+]([O-])c1cccnc1SSc1ncccc1[N+](=O)[O-]`, the T/C under setting [10] was 90 % of control; the T/C (endpoint: mean survival time, dose: 100.0 mg/kg/injection, schedule: Q04DX003 (ip), vehicle: saline) was 92 % of control; the T/C (endpoint: mean survival time, dose: 200.0 mg/kg/injection, schedule: Q01DX001 (ip), vehicle: saline) was 90 % of control; the T/C (endpoint: mean survival time, dose: 200.0 mg/kg/injection, schedule: Q04DX003 (ip), vehicle: saline) is 102 % of control; the T/C (endpoint: mean survival time, dose: 400.0 mg/kg/injection, schedule: Q01DX001 (ip), vehicle: saline) is 90 % of control; the T/C under setting [12] was 92 % of control.
In the case of `S=C(NCCSC(=S)Nc1ccccc1)Nc1ccccc1`, the T/C is, setting by setting: under setting [5], 91 % of control; under setting [7], 89 % of control; under setting [9], 106 % of control.
In the case of `N#CC(C(N)=O)C1CC(=O)Oc2ccccc21` (centres undefined), the T/C reads like this: (endpoint: mean survival time, dose: 100.0 mg/kg/injection, schedule: Q04DX003 (ip), vehicle: Klucel (hydroxypropylcellulose) (HPC)) 91 % of control; (endpoint: mean survival time, dose: 200.0 mg/kg/injection, schedule: Q04DX003 (ip), vehicle: Klucel (hydroxypropylcellulose) (HPC)) 112 % of control.
For `NCCCCS(=O)(=O)Nc1ccc(Nc2c3ccccc3nc3cc([N+](=O)[O-])ccc23)cc1`, the T/C was 158 % of control under setting [4]; 172 % of control under setting [5]; 157 % of control under setting [6]; 159 % of control (endpoint: mean survival time, dose: 300.0 mg/kg/injection, schedule: Q04DX003 (ip), vehicle: saline with Tween-80); 151 % of control under setting [12].
`N#CC1(C#N)OC(C#N)(C#N)C2C1C=CC1C2C1(C#N)C#N` (centres undefined): the T/C (endpoint: mean survival time, dose: 6.25 mg/kg/injection, schedule: Q01DX001 (ip), vehicle: saline with Tween-80) is 108 % of control; the T/C (endpoint: mean survival time, dose: 12.5 mg/kg/injection, schedule: Q01DX001 (ip), vehicle: saline with Tween-80) is 97 % of control; the T/C (endpoint: mean survival time, dose: 25.0 mg/kg/injection, schedule: Q01DX001 (ip), vehicle: saline with Tween-80) is 97 % of control.
Consider `CN(C)c1ccc(C(O)c2ccc(N(C)C)cc2)cc1`, for which the T/C is 90 % of control under setting [6], 91 % of control under setting [8] and 94 % of control under setting [11].
With `CCCCCCC(O)C/C=C\CCCCCCCC(=O)O` (centres undefined), the T/C reads like this: (endpoint: mean survival time, dose: 50.0 mg/kg/injection, schedule: Q04DX002 (ip), vehicle: saline) 86 % of control; (endpoint: mean survival time, dose: 100.0 mg/kg/injection, schedule: Q04DX002 (ip), vehicle: saline) 90 % of control.
Consider `CCN(CC)CCCC(C)Nc1nnc2c(=O)n(C)c(=O)n(C)c2n1` (centres undefined), for which the T/C (endpoint: mean survival time, dose: 75.0 mg/kg/injection, schedule: Q01DX001 (ip), vehicle: saline) is 95 % of control; the T/C (endpoint: mean survival time, dose: 150.0 mg/kg/injection, schedule: Q01DX001 (ip), vehicle: saline) is 93 % of control; the T/C (endpoint: mean survival time, dose: 300.0 mg/kg/injection, schedule: Q01DX001 (ip), vehicle: saline) was 87 % of control.
`O=NN1CC2CCC1CC2`: the T/C (endpoint: mean survival time, dose: 5.0 mg/kg/injection, schedule: Q01DX001 (ip), vehicle: saline with Tween-80) was 98 % of control and the T/C (endpoint: mean survival time, dose: 10.0 mg/kg/injection, schedule: Q01DX001 (ip), vehicle: saline with Tween-80) was 101 % of control.
